Data from patent publication EP0840727B1, “3-HYDROXY-2(1H)-[…] AGENTS” (priority 1995, dated 1997).
Like-named read-outs stand apart in the source and are kept apart here. Marks after values point to notes of the source that are not given here.

What was measured:
[1] = ligand 30 µmol kg^-1 ip at 1 h after iv ^238Pu(IV) citrate, kill at 24 h, reported previously, cited from earlier work; for percent of injected ^238Pu at 24 h, excreta: feces and GI contents / percent of injected ^238Pu at 24 h, excreta: urine 0-24 h / percent of injected ^238Pu at 24 h, tissues: kidneys: pooled samples
[2] = Promoting excretion of 238Pu(IV) in mice by injected ligands; format: in vivo; conditions: for Pu removal (in words): injected ligands, 30 µmol/kg intraperitoneally one hour after ^238Pu(IV); for percent of injected ^238Pu ± SD at 24 h, tissues: liver / percent of injected ^238Pu ± SD at 24 h, tissues: skeleton / percent of injected ^238Pu ± SD at 24 h, tissues: soft tissue / percent of injected ^238Pu ± SD at 24 h, whole body / percent of injected ^238Pu at 24 h, excreta: feces and GI contents / percent of injected ^238Pu at 24 h, excreta: urine 0-24 h / percent of injected ^238Pu at 24 h, tissues: kidneys: ligand 30 µmol kg^-1 ip at 1 h after iv ^238Pu(IV) citrate, kill at 24 h; for percent of injected ^238Pu at 24 h, excreta: feces and GI contents / percent of injected ^238Pu at 24 h, excreta: urine 0-24 h / percent of injected ^238Pu at 24 h, tissues: kidneys: pooled samples
From the text: Animal studies were completed using methods detailed in Radiation Protection Dosimetry, in press, P. W. Durbin et al., "In Vivo Chelation of Am(III), Pu(IV), Np(V) and U(VI) in Mice by TREN-(Me-3,2-HOPO)"; Radiation Protection Dosimetry, 17, No. 1, 1989, p. 351, P. W. Durbin et al., "Removal of ^238Pu(IV) from Mice by Polycatechoylate, -Hydroxamate or -Hydroxypyridinonate Ligands"; Radiation Research, 99, 1984, p. 85, P. W. Durbin et al., "Specific Sequestering Agents for the Actinides ..."; Radiation Research, 99, 1984, p. 106, P. W. Durbin et al., "Removal of Pu and Am from Beagles and Mice ..."; Radiation Research, 81, 1980, p. 170, R. D. Lloyd et al., and P. W. Durbin et al., "Specific Sequestering Agents for the Actinides ...". The foregoing articles are hereby incorporated by reference.
Radionuclides used in the animal studies came from a variety of sources. However, they can be purchased commercially. The ^238Pu(IV) citrate and ^241Am(III) citrate solutions were prepared for animal injection by 8- to 10-fold dilution with 0.14M NaCl (pH 4) of concentrated stock solutions (0.08M sodium citrate buffer) that had been held in frozen storage at Lawrence Berkeley Laboratory (hereinafter LBL) for several years. [The ^238Pu(IV) was originally obtained from D. R. Atherton at the University of Utah Radiobiology Laboratory, Salt Lake City. The ^241Am(III) solution had been obtained many years earlier from the LBL Actinide Chemistry group.]
The novel chelating agents of the present invention and comparative compounds were tested for their effectiveness in promoting excretion ^238Pu(IV) in nice by injected ligands as follows. Mice, in groups of five, each received an intravenous injection of 1850 Bq ^238Pu(IV) in 0.2 mL of citrate buffer. One hour later, 30 µmol/kg of ligand was injected intraperitoneally in 0.5 mL of saline. The mice were killed 24 hours after the Pu injection, frozen, and dissected after partial thawing. The ^238Pu in skeleton, soft tissues, and separated excreta was determined by counting the ^234U L x-rays. Results of removal of ^238Pu(IV) from mice by injected ligands are summarized in Table 3, which also includes data for CaNa3-DTPA and other reference ligands and the Pu-injected controls. […] While the case of multidente 1,2-HOPO and catechoylamide chelating agents, octadentates are always better chelating agents than the corresponding hexadentates and tetradentates.

[3] = In vivo acute toxicity test of injected ligands in mice; conditions: for toxicity (in words): even at the relatively high dosage of 2x500 µmol/kg in 8 hours
Description: The test of acute toxicity of novel and comparative ligands was carried out as follows. Groups of five mice were each given a single i.p. injection of […] of ligand and a day for 10 days or given two i.p. injections of […] in 8 hours. The ligand was dissolved in 0.5 to 1.0 ml of saline at pH 7 to 8. After a period of observation, the mice were killed; selected tissues were removed and fixed for histopathological examination; and unusual findings at autopsy were recorded. […]

[4] = protocol I, 100 µmol kg^-1 x 10 daily i.p., study length 11 d
[5] = protocol I, 100 µmol kg^-1 x 10 daily i.p., study length 21 d
[6] = protocol II, 500 µmol kg^-1 x 2 in 8 h, study length 11 d
[7] = protocol IA, 100 µmol kg^-1 x 2 daily, study length 3 d
[8] = protocol IA, 100 µmol kg^-1 x 2 daily, study length 11 d

Structure (SMILES)	percent of injected ^238Pu at 24 h, excreta: feces and GI contents [1]	percent of injected ^238Pu at 24 h, excreta: urine 0-24 h [1]	percent of injected ^238Pu at 24 h, tissues: kidneys [1]	percent of injected ^238Pu ± SD at 24 h, tissues: liver [1]	percent of injected ^238Pu ± SD at 24 h, tissues: skeleton [1]	percent of injected ^238Pu ± SD at 24 h, tissues: soft tissue [1]	percent of injected ^238Pu ± SD at 24 h, whole body [1]	Pu removal (in words) [2]	percent of injected ^238Pu ± SD at 24 h, tissues: liver [2]	percent of injected ^238Pu ± SD at 24 h, tissues: skeleton [2]	percent of injected ^238Pu ± SD at 24 h, tissues: soft tissue [2]	percent of injected ^238Pu ± SD at 24 h, whole body [2]	percent of injected ^238Pu at 24 h, excreta: feces and GI contents [2]	percent of injected ^238Pu at 24 h, excreta: urine 0-24 h [2]	percent of injected ^238Pu at 24 h, tissues: kidneys [2]	toxicity (in words) [3]	no. of survivors [3, 4]	percent control mean + SD: body weight [3, 4] [percent control]	percent control mean + SD: kidney weight [3, 4] [percent control]	percent control mean + SD: plasma urea N [3, 4] [percent control]	also measured
O=C(NCCCCN(CCCNC(=O)c1cccc(=O)n1O)C(=O)c1cccc(=O)n1O)c1cccc(=O)n1O [3,4-LI(1,2-HOPO)]	58% of injected ^238Pu	7.9% of injected ^238Pu	0.6% of injected ^238Pu	18 ± 4.8% of injected ^238Pu	9.9 ± 3.6% of injected ^238Pu	5.8 ± 1.3% of injected ^238Pu	34 ± 9.2% of injected ^238Pu														
CC(=O)N(O)CCCCCNC(=O)CCC(=O)N(O)CCCCCNC(=O)CCC(=O)N(O)CCCCCNC(=O)c1cccc(=O)n1O [DFO-(1,2-HOPO)]	46.7% of injected ^238Pu	9.5% of injected ^238Pu		5.1 ± 2.2^d percent of injected ^238Pu	6.0 ± 0.5^d percent of injected ^238Pu	2.3 ± 0.5^d percent of injected ^238Pu	13 ± 2.9^d percent of injected ^238Pu														
O=C(NCc1cc(CNC(=O)c2cccc(=O)n2O)cc(CNC(=O)c2cccc(=O)n2O)c1)c1cccc(=O)n1O [ME-(1,2-HOPO)]	43% of injected ^238Pu	9.6% of injected ^238Pu	1.8% of injected ^238Pu	18 ± 6.3^d percent of injected ^238Pu	17 ± 2.5% of injected ^238Pu	10 ± 1.8% of injected ^238Pu	47 ± 9.4% of injected ^238Pu														
Cn1ccc(C(=O)NCCOCCNC(=O)c2ccn(C)c(=O)c2O)c(O)c1=O [5-LI-O-Me-3,2-HOPO, 1,5-bis[(3-hydroxy-1-methyl-2-oxo-1,2-dihydropyridin-4-yl)carboxamino]-3-oxypentane]								as effective or more effective than the hexadentate and octadentate chelating agents	2.1 ± 0.3^d percent of injected ^238Pu	11 ± 1.6% of injected ^238Pu	1.6 ± 0.2^d percent of injected ^238Pu	15 ± 2.1^d percent of injected ^238Pu	61.7% of injected ^238Pu	23.5% of injected ^238Pu	0.2% of injected ^238Pu	low toxicity	5	103 ± 5	100 ± 19	83 ± 5	no. of survivors [3, 5]: 5; percent control mean + SD: body weight [3, 5]: 101 ± 5 percent control; percent control mean + SD: kidney weight [3, 5]: 111 ± 5 percent control; percent control mean + SD: plasma urea N [3, 5]: 86 ± 18 percent control; no. of survivors [3, 6]: 10; percent control mean + SD: body weight [3, 6]: 100 ± 2 percent control; percent control mean + SD: kidney weight [3, 6]: 108 ± 10 percent control; percent control mean + SD: plasma urea N [3, 6]: 77 ± 10 percent control
Cn1ccc(C(=O)NCCCCCNC(=O)c2ccn(C)c(=O)c2O)c(O)c1=O [5-LI-Me-3,2-HOPO, 1,5-bis[(3-hydroxy-1-methyl-2-oxo-1,2-dihydropyridin-4-yl)carboxamido]pentane]								as effective or more effective than the hexadentate and octadentate chelating agents	3.1 ± 0.8^d percent of injected ^238Pu	10 ± 1.2% of injected ^238Pu	1.9 ± 0.5% of injected ^238Pu	16 ± 1.9^d percent of injected ^238Pu	67.6% of injected ^238Pu	17.5% of injected ^238Pu	0.3% of injected ^238Pu	low toxicity	5	102 ± 5	109 ± 14	89 ± 1	no. of survivors [3, 5]: 5; percent control mean + SD: body weight [3, 5]: 102 ± 5 percent control; percent control mean + SD: kidney weight [3, 5]: 100 ± 4 percent control; percent control mean + SD: plasma urea N [3, 5]: 101 ± 2 percent control; no. of survivors [3, 6]: 5; percent control mean + SD: body weight [3, 6]: 99 ± 3 percent control; percent control mean + SD: kidney weight [3, 6]: 109 ± 9 percent control; percent control mean + SD: plasma urea N [3, 6]: 98 ± 18 percent control
Cn1ccc(C(=O)NCCCCCCNC(=O)c2ccn(C)c(=O)c2O)c(O)c1=O [6-LI-Me-3,2-HOPO, 1,6-bis[(3-hydroxy-1-methyl-2-oxo-1,2-dihydropyridin-4-yl)carboxamindo]hexane]									6.5 ± 3.7^d percent of injected ^238Pu	12 ± 1.8% of injected ^238Pu	3.7 ± 1.8% of injected ^238Pu	23 ± 4.9^d percent of injected ^238Pu	62.9% of injected ^238Pu	14.4% of injected ^238Pu	0.5% of injected ^238Pu						no. of survivors [3, 7]: 5; percent control mean + SD: body weight [3, 7]: 83 ± 3 percent control; percent control mean + SD: kidney weight [3, 7]: 132 ± 11 percent control; percent control mean + SD: plasma urea N [3, 7]: 343 ± 140 percent control; no. of survivors [3, 8]: 3; percent control mean + SD: body weight [3, 8]: 101 ± 5 percent control; percent control mean + SD: kidney weight [3, 8]: 112 ± 13 percent control; percent control mean + SD: plasma urea N [3, 8]: 92 ± 6 percent control
